Test results published in patent US20140302113A1, “SYSTEMS, DEVICES, AND METHODS FOR EMBEDDING DRUG MOLECULES INTO MEDICAL CATHETERS OR TUBES” (priority 2011, published 2014).
Where two headings read alike, the source gives them in different places.

Tests used:
[1] = solution with pH about 7.4; cited from earlier work
[2] = assay type: physicochemical; details: loaded catheter in Example 4
Description: 0.16 g of chlorhexidine diacetate was dissolved in 15.8 gram distilled water in a glass jar to form a clear solution. A section of a silicone coated latex Foley catheter (Bardia Foley Catheter, 16 Fr. Reorder No. 123516A, Lot MYUDR067), approximately 16 cm long, was placed into the jar and completely submerged in the solution. 0.08 g of a 10 wt % NaOH solution was added into the loading solution to increase the pH. […] The jar was closed with a cap and placed into an oven with temperatures cycling between about 62° C. and 68° C. The jar was kept in the oven for the next 120 hours and was shaken occasionally during the 120 hour heat treatment period.
The release rates of chlorhexidine from the loaded catheter in Example 4 were measured as follows. The catheter section was thoroughly washed and cut into two pieces, Section A (7.774 cm) and Section B (8.055 cm). Each section was submerged into 17 mL of a 0.15 M pH7.4 phosphate buffer held in a glass vial, which was placed into a 37° C. water bath. At each time point, the catheter section was retrieved from the glass vial, dried, and placed into another glass vial containing 17 mL of a fresh pH 7.4 phosphate buffer. The vial was then placed into the 37° C. water bath. The amount of chlorhexidine in the solution remaining in the first vial was measured with HPLC. This process was repeated at each time point. The average flux of chlorhexidine released from the catheter wall during the period between the current and previous time points was calculated by dividing the total amount of chlorhexidine in the solution (microgram) by the total surface area of the catheter section (cm^2) and by the length of time between the two time points (hour). The result is the amount of chlorhexidine released per square centimeter of the catheter wall per hour. The average chlorhexidine release flux and the average amount of chlorhexidine released from each square centimeter of the catheter wall per 24 hour period are listed in Table 3.

[3] = Foley catheter of Example 6
Description: The tip and the discharge end were discarded because they would not be expected to touch the patient's mucosa during the catheter use. […] The holes on both ends of each of the four catheter sections were blocked. Each of the four catheter sections was placed into a glass scintillation vial. A 0.15 M PBS solution with pH 7.4 was used as release medium. 20.7 mL of the medium was added into the vial to submerge the entire catheter section. The vial was closed tightly and a vinyl tape was wrapped around the cap to prevent solvent evaporation. The vial was placed into a 37° C. water bath with no shaking (mimicking human use), and the time was set as t=0. […] The catheter sections was removed from the vial, dried with a tissue, and placed into a new vial with the same amount of release medium. The new vial was then put back into the same water bath. This process was repeated at each time point. The samples were analyzed with HPLC.

## CC(=O)O.CC(=O)O.NC(=N\CCCCCC/N=C(N)/N=C(\N)Nc1ccc(Cl)cc1)/N=C(\N)Nc1ccc(Cl)cc1 [Chlorhexidine diacetate, chlorhexidine diacetate]
[1]
  concentration that can be dissolved in water: higher than 1.5 wt %

## [H]/N=C(\N/C(=N/[H])NCCCCCCNC(=N)NC(=N)Nc1ccc(Cl)cc1)Nc1ccc(Cl)cc1 [Chlorhexidine, chlorhexidine]
[2]
  period with more than 1 microgram of chlorhexidine released from each square centimeter of wall surface per 24 hour: at least 11 days
[2]; time 0.17 day
  Average Chlorhexidine Amount/cm^2/24 hr: 218 micrograms
[2]; time 0.5 day
  Average Chlorhexidine Amount/cm^2/24 hr: 43.9 micrograms
[2]; time 1.1 day
  Average Chlorhexidine Amount/cm^2/24 hr: 21.5 micrograms
[2]; time 1.6 day
  Average Chlorhexidine Amount/cm^2/24 hr: 13.1 micrograms
[2]; time 2 day
  Average Chlorhexidine Amount/cm^2/24 hr: 10.2 micrograms
[2]; time 2.5 day
  Average Chlorhexidine Amount/cm^2/24 hr: 4.5 micrograms
[2]; time 3 day
  Average Chlorhexidine Amount/cm^2/24 hr: 4.3 micrograms
[2]; time 3.5 day
  Average Chlorhexidine Amount/cm^2/24 hr: 2.6 micrograms
[2]; time 4.0 day
  Average Chlorhexidine Amount/cm^2/24 hr: 3.3 micrograms
[2]; time 4.5 day
  Average Chlorhexidine Amount/cm^2/24 hr: 3.2 micrograms
[2]; time 5 day
  Average Chlorhexidine Amount/cm^2/24 hr: 3.2 micrograms
[2]; time 5.5 day
  Average Chlorhexidine Amount/cm^2/24 hr: 2.9 micrograms
[2]; time 6 day
  Average Chlorhexidine Amount/cm^2/24 hr: 2.6 micrograms
[2]; time 6.5 day
  Average Chlorhexidine Amount/cm^2/24 hr: 2.2 micrograms
[2]; time 7 day
  Average Chlorhexidine Amount/cm^2/24 hr: 1.8 micrograms
[2]; time 8 day
  Average Chlorhexidine Amount/cm^2/24 hr: 1.2 micrograms
[2]; time 8.5 day
  Average Chlorhexidine Amount/cm^2/24 hr: 1.4 micrograms
[2]; time 9.0 day
  Average Chlorhexidine Amount/cm^2/24 hr: 1.7 micrograms
[2]; time 10.0 day
  Average Chlorhexidine Amount/cm^2/24 hr: 2.0 micrograms
[2]; time 11 day
  Average Chlorhexidine Amount/cm^2/24 hr: 1.1 micrograms
[2]; time 12 day
  Average Chlorhexidine Amount/cm^2/24 hr: 0.8 micrograms
[3]; time 0.17 day
  Average Released Chlorhexidine Amount/cm^2/24 hr: 2.2 micrograms
[3]; time 0.5 day
  Average Released Chlorhexidine Amount/cm^2/24 hr: 3.8 micrograms
[3]; time 1.0 day
  Average Released Chlorhexidine Amount/cm^2/24 hr: 2.8 micrograms
[3]; time 1.5 day
  Average Released Chlorhexidine Amount/cm^2/24 hr: 3.4 micrograms
[3]; time 2 day
  Average Released Chlorhexidine Amount/cm^2/24 hr: 3.2 micrograms
[3]; time 2.5 day
  Average Released Chlorhexidine Amount/cm^2/24 hr: 2.4 micrograms
[3]; time 3.1 day
  Average Released Chlorhexidine Amount/cm^2/24 hr: 1.6 micrograms
[3]; time 3.6 day
  Average Released Chlorhexidine Amount/cm^2/24 hr: 1.5 micrograms
[3]; time 4 day
  Average Released Chlorhexidine Amount/cm^2/24 hr: 1.7 micrograms
[3]; time 4.5 day
  Average Released Chlorhexidine Amount/cm^2/24 hr: 1.0 micrograms
[3]; time 5 day
  Average Released Chlorhexidine Amount/cm^2/24 hr: 1.3 micrograms
[3]; time 5.5 day
  Average Released Chlorhexidine Amount/cm^2/24 hr: 1.0 micrograms
[3]; time 6.5 day
  Average Released Chlorhexidine Amount/cm^2/24 hr: 0.6 micrograms
[3]; time 7 day
  Average Released Chlorhexidine Amount/cm^2/24 hr: 0.7 micrograms
[3]; time 7.5 day
  Average Released Chlorhexidine Amount/cm^2/24 hr: 0.6 micrograms
[3]; time 8 day
  Average Released Chlorhexidine Amount/cm^2/24 hr: 0.5 micrograms
[3]; time 9 day
  Average Released Chlorhexidine Amount/cm^2/24 hr: 0.5 micrograms
[3]; time 9.5 day
  Average Released Chlorhexidine Amount/cm^2/24 hr: 0.5 micrograms
[3]; time 10 day
  Average Released Chlorhexidine Amount/cm^2/24 hr: 0.5 micrograms
[3]; time 11 day
  Average Released Chlorhexidine Amount/cm^2/24 hr: 0.5 micrograms
[3]; time 12 day
  Average Released Chlorhexidine Amount/cm^2/24 hr: 0.5 micrograms
[3]; time 14 day
  Average Released Chlorhexidine Amount/cm^2/24 hr: 0.4 micrograms
